The target in assay [1] is T1, 5-hydroxytryptamine receptor 2C (Homo sapiens, UniProt P28335).
T1 sequence (P28335 whole entry): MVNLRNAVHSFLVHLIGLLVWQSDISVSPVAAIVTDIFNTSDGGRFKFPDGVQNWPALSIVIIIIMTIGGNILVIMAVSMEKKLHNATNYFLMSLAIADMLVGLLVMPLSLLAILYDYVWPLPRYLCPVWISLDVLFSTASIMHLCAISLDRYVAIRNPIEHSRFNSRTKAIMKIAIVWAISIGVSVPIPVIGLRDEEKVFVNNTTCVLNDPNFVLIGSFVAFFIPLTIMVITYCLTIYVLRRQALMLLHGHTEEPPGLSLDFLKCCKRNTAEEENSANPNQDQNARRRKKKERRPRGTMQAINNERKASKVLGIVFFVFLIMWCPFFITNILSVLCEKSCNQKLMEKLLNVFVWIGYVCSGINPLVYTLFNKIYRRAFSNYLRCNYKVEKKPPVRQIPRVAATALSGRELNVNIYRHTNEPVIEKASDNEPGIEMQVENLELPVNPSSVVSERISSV
Briefly: DRUGMATRIX: Serotonin (5-Hydroxytryptamine) 5-HT2C radioligand binding (ligand: [3H] Mesulergine). The class given is cell membranes, CHO-K1, Membrane. The following applies: Not Active = under 50% inhibition at 10 µM.

Another assay has as its target Cannabinoid receptor 1 (Homo sapiens, UniProt P21554). It counts as cell membranes, Membrane. The following applies: chem-1. Further: in other assays of this panel Not Active means under 50% inhibition at 10 µM.
Assay [2] is described as follows: DRUGMATRIX: GABAA, Flunitrazepam, Central radioligand binding (ligand: [3H] Flunitrazepam). It counts as cell membranes, Rattus norvegicus, Wistar, Brain, Membrane. The note with it: Not Active = under 50% inhibition at 10 µM.
Assay [3] concerns the target T2, C-C chemokine receptor type 4 (Homo sapiens, UniProt P51679). Further: in other assays of this panel Not Active means under 50% inhibition at 10 µM.
T2 sequence (P51679 whole entry): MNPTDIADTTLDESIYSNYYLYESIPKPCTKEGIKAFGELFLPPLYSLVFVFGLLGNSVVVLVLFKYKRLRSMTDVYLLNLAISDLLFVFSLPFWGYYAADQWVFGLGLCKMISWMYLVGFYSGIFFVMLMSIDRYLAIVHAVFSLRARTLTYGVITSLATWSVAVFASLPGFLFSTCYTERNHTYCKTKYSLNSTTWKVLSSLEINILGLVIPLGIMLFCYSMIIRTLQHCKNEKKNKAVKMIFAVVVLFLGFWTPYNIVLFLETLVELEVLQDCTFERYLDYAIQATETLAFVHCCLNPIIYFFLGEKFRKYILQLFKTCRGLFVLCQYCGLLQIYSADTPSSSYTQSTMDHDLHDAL
The class given is cell membranes, Chem-1, Membrane. The following applies: chem-1.

Assay [4] addresses Tyrosine-protein kinase Fyn (Homo sapiens, UniProt P06241). Nature of the assay: biochemical. It counts as cell-based, Insect cells.
For assay [5], the target named is T3, Muscarinic acetylcholine receptor M5 (Homo sapiens, UniProt P08912). Further: in other assays of this panel Not Active means under 50% inhibition at 10 µM.
T3 sequence (P08912 whole entry): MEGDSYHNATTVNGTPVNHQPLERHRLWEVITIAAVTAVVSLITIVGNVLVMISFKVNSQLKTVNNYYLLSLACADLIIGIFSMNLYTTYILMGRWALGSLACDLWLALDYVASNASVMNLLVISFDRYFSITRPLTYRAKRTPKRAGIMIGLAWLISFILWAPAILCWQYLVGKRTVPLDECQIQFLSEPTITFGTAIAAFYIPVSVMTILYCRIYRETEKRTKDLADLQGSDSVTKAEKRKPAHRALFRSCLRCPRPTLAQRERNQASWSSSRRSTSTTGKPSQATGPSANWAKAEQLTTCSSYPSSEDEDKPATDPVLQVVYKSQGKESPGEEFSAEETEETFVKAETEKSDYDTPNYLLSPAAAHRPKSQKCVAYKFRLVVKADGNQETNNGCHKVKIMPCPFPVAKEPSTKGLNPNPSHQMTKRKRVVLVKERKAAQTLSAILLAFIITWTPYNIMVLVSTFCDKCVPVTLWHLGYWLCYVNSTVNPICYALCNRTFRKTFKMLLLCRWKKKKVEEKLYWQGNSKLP
The class given is cell membranes, CHO-K1, Membrane.

Chain of Tyrosine-protein kinase Fyn (P06241 whole entry): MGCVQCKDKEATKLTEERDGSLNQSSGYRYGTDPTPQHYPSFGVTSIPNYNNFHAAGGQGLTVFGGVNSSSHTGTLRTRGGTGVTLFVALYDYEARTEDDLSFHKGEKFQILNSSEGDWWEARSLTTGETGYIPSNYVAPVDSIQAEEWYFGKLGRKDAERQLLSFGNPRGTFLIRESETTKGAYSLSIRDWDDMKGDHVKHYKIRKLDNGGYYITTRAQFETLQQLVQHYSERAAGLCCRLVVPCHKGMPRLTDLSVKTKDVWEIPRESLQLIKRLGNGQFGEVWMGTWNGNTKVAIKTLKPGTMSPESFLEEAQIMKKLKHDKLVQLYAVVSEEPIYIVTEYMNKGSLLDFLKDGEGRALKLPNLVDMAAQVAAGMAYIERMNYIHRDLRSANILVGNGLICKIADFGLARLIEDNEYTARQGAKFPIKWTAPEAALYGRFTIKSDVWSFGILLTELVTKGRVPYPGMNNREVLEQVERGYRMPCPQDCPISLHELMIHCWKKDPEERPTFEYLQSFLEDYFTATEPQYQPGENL
Chain of Cannabinoid receptor 1 (P21554 whole entry): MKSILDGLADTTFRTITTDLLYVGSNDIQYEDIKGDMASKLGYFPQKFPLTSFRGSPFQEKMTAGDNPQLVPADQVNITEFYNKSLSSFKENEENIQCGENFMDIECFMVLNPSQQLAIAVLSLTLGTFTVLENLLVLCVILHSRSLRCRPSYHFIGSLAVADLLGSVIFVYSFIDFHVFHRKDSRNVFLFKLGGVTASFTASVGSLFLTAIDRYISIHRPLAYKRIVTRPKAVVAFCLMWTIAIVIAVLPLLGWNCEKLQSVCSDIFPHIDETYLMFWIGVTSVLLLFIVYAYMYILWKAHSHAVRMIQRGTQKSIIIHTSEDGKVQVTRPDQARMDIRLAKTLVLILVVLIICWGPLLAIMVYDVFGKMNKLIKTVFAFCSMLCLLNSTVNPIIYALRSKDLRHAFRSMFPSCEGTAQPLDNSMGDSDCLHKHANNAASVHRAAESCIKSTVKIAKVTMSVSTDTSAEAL

In the case of `N=C(N)NCCN1CCCCCCC1` [GUANETHIDINE], the IC50 entry (in assay [1] (cho-k1); against Cannabinoid receptor 1; in assay [2]; in assay [3]; in assay [4] (insect cells); in assay [5] (cho-k1)) was “Not Active” in each case. In addition, the inhibition constant (Ki) – broadly, the dissociation constant of the complex between target and ligand, obtained from inhibition or displacement – in assay [2] was “Not Active”.
For `CC(C)CN(C[C@@H](O)[C@H](Cc1ccccc1)NC(=O)O[C@H]1CCOC1)S(=O)(=O)c1ccc(N)cc1`, the IC50 entry (in assay [1] (cho-k1); against Cannabinoid receptor 1; in assay [2]; in assay [3]; in assay [4] (insect cells); in assay [5] (cho-k1)) was “Not Active” in each case. Moreover, the Ki entry in assay [2] is listed as “Not Active”.
On to `O=c1[nH]c(=O)n([C@H]2C[C@H](O)[C@@H](CO)O2)cc1I` [IDOXURIDINE], for which the IC50 entry (in assay [1] (cho-k1); on Cannabinoid receptor 1; in assay [2]; in assay [3]; in assay [4] (insect cells); in assay [5] (cho-k1)) was “Not Active” each time. In addition, the inhibition constant (Ki) entry in assay [2] is recorded as “Not Active”.
With `C[C@H](CCC(=O)O)[C@H]1CC[C@H]2[C@@H]3[C@H](O)C[C@@H]4C[C@H](O)CC[C@]4(C)[C@H]3C[C@H](O)[C@]12C` [CHOLIC ACID], the IC50 result (in assay [1] (cho-k1); on Cannabinoid receptor 1; in assay [2]; in assay [3]; in assay [4] (insect cells); in assay [5] (cho-k1)) was “Not Active” each time. Also, the inhibition constant Ki entry in assay [2] is “Not Active”.
For the molecule `O=C(CCCN1CC=C(n2c(=O)[nH]c3ccccc32)CC1)c1ccc(F)cc1` [DROPERIDOL], the half-inhibitory concentration (IC50) (commonly the midpoint of a concentration-inhibition curve) was 0.454 µM in assay [1] (read-out: IC50); “Not Active” against Cannabinoid receptor 1; “Not Active” in assay [2]; “Not Active” in assay [3]; “Not Active” in assay [4] (insect cells); 2.3 µM in assay [5] (read-out: IC50). Moreover, the Ki is 0.238 µM in assay [1] (read-out: Ki), “Not Active” in assay [2] and 1.65 µM in assay [5] (read-out: Ki).
As to `CC(=O)O[C@@]12CO[C@@H]1C[C@H](O)[C@@]1(C)C(=O)[C@H](O)C3=C(C)[C@@H](OC(=O)[C@H](O)[C@@H](NC(=O)OC(C)(C)C)c4ccccc4)C[C@@](O)([C@@H](OC(=O)c4ccccc4)[C@H]21)C3(C)C.O.O.O` [DOCETAXEL], the half-maximal inhibitory concentration (IC50) entry (in assay [1] (cho-k1); on Cannabinoid receptor 1; in assay [2]; in assay [3]; in assay [4] (insect cells); in assay [5] (cho-k1)) was “Not Active” each time. Moreover, the inhibitory constant (Ki) entry in assay [2] is reported as “Not Active”.
On to `C[C@H]1c2cccc(O)c2C(=O)C2=C(O)[C@]3(O)C(=O)C(C(N)=O)=C(O)[C@@H](N(C)C)[C@@H]3[C@@H](O)[C@@H]21.O` [DOXYCYCLINE], for which the concentration for half-maximal inhibition (IC50) entry (in assay [1] (cho-k1); against Cannabinoid receptor 1; in assay [2]; in assay [3]; in assay [4] (insect cells); in assay [5] (cho-k1)) was “Not Active” throughout. In addition, in assay [2], the Ki entry was “Not Active”.
`CC(C)[C@@]1(NC(=O)[C@@H]2C[C@@H]3c4cccc5[nH]cc(c45)C[C@H]3N(C)C2)O[C@@]2(O)[C@@H]3CCCN3C(=O)[C@H](Cc3ccccc3)N2C1=O.CS(=O)(=O)O` [DIHYDROERGOCRISTINE MESYLATE]: the half-inhibitory concentration (IC50) in assay [1] (read-out: IC50) was 0.239 µM; on Cannabinoid receptor 1, “Not Active”; in assay [2], “Not Active”; in assay [3], “Not Active”; in assay [4] (insect cells), “Not Active”; in assay [5] (cho-k1), “Not Active”. Besides, the inhibition constant Ki was 0.125 µM in assay [1] (read-out: Ki) and “Not Active” in assay [2].
For LIPOPOLYSACCHARIDE E. COLI O55:B5, the IC50 result in assay [1] (cho-k1) is “Not Active”; against Cannabinoid receptor 1 it was “Not Active”; in assay [2], “Not Active”; in assay [3], “Not Active”; in assay [4] (insect cells, read-out: IC50) it was 0.191 µM; in assay [5] (cho-k1), “Not Active”. Further, the Ki entry (in assay [1] (cho-k1); at Cannabinoid receptor 1; in assay [2]; in assay [3]; in assay [5] (cho-k1)) was “Not Active” each time.
Turning to `Nc1c(Br)cc(Br)cc1CN[C@H]1CC[C@H](O)CC1` [AMBROXOL], the concentration for half-maximal inhibition (IC50) entry (in assay [1] (cho-k1); against Cannabinoid receptor 1; in assay [2]; in assay [3]; in assay [4] (insect cells); in assay [5] (cho-k1)) was “Not Active” in each case. Besides, the inhibitory constant (Ki) result in assay [2] is reported as “Not Active”.
Regarding `NCCCCCC(=O)O` [AMINOCAPROIC ACID], the IC50 entry (in assay [1] (cho-k1); on Cannabinoid receptor 1; in assay [2]; in assay [3]; in assay [4] (insect cells); in assay [5] (cho-k1)) was “Not Active” in each case. The Ki entry in assay [2] is recorded as “Not Active”.
On to `CCC(C)n1ncn(-c2ccc(N3CCN(c4ccc(OCC5COC(Cn6cncn6)(c6ccc(Cl)cc6Cl)O5)cc4)CC3)cc2)c1=O` (stereo not given) [ITRACONAZOLE], for which the IC50 result in assay [1] (cho-k1) was “Not Active”; at Cannabinoid receptor 1, “Not Active”; in assay [2], “Not Active”; in assay [3], “Not Active”; in assay [4] (read-out: IC50), 3.89 µM; in assay [5] (cho-k1), “Not Active”. Moreover, the Ki result in assay [2] is listed as “Not Active”.
On to `Cc1c(C)c2c(c(C)c1O)CC[C@@](C)(CCC[C@H](C)CCC[C@H](C)CCCC(C)C)O2` [ALPHA-TOCOPHEROL], for which the IC50 entry (in assay [1] (cho-k1); against Cannabinoid receptor 1; in assay [2]; in assay [3]; in assay [4] (insect cells); in assay [5] (cho-k1)) was “Not Active” throughout. In addition, the Ki result in assay [2] is given as “Not Active”.
For the molecule `Cc1cc(C(C#N)c2ccc(Cl)cc2)c(Cl)cc1NC(=O)c1cc(I)cc(I)c1O` (stereo not given) [CLOSANTEL], the concentration for half-maximal inhibition (IC50) result in assay [1] (cho-k1) was “Not Active”; on Cannabinoid receptor 1, “Not Active”; in assay [2], “Not Active”; in assay [3], “Not Active”; in assay [4] (read-out: IC50), 0.939 µM; in assay [5] (cho-k1), “Not Active”. Further, the inhibitory constant (Ki) result in assay [2] was “Not Active”.
Consider `CNNCc1ccc(C(=O)NC(C)C)cc1` [PROCARBAZINE], for which the IC50 result (in assay [1] (cho-k1); against Cannabinoid receptor 1; in assay [2]; in assay [3]; in assay [4] (insect cells); in assay [5] (cho-k1)) was “Not Active” in each case. In addition, the Ki result in assay [2] is “Not Active”.
For `Cc1ccc(/N=C/N(C)/C=N/c2ccc(C)cc2C)c(C)c1` [AMITRAZ], the IC50 result (in assay [1] (cho-k1); against Cannabinoid receptor 1; in assay [2]; in assay [3]; in assay [4] (insect cells); in assay [5] (cho-k1)) was “Not Active” throughout. For the same molecule, the Ki result in assay [2] was “Not Active”.
As for `Cc1ccc2cc3c(ccc4ccccc43)c3c2c1CC3` [3-METHYLCHOLANTHRENE], the concentration for half-maximal inhibition (IC50) entry is “Not Active” in assay [1] (cho-k1); “Not Active” against Cannabinoid receptor 1; “Not Active” in assay [2]; “Not Active” in assay [3]; 25.2 µM in assay [4] (read-out: IC50); “Not Active” in assay [5] (cho-k1). For the same molecule, the Ki result in assay [2] is “Not Active”.
As for `CNCCc1ccccn1` [BETAHISTINE], the 50% inhibitory concentration (IC50) result (in assay [1] (cho-k1); against Cannabinoid receptor 1; in assay [2]; in assay [3]; in assay [4] (insect cells); in assay [5] (cho-k1)) was “Not Active” each time. In addition, in assay [2], the inhibition constant Ki result was “Not Active”.
With `OC(Cn1cncn1)(Cn1cncn1)c1ccc(F)cc1F` [FLUCONAZOLE], the concentration for half-maximal inhibition (IC50) result (in assay [1] (cho-k1); at Cannabinoid receptor 1; in assay [2]; in assay [3]; in assay [4] (insect cells); in assay [5] (cho-k1)) was “Not Active” each time. For the same molecule, the Ki result in assay [2] was “Not Active”.

(Values after ChEMBL document CHEMBL1909046, “DrugMatrix in vitro pharmacology data”.)
